Reference: ChEMBL document CHEMBL5236566, “Design and synthesis of novel pipernonaline derivatives as anti-austerity agents against human pancreatic cancer PANC-1 cells” (Bioorg Med Chem, 2022)
Active and inactive are the calls of the source. The rule behind the calls is not given here.

Tests used:
[1] = Selectivity index, ratio of IC50 for cytotoxicity against human PANC-1 cells in nutrient-rich Dulbecco's modified Eagle's medium to PC50 for preferential cytotoxicity against human PANC-1 cells in nutrient-deprived medium; type: toxicity, cell-based
[2] = system: PANC-1; experiment: Cytotoxicity against human PANC-1 cells assessed as reduction in cell viability incubated for 24 hrs in nutrient-rich Dulbecco's modified Eagle's medium by WST-8 assay; type: functional, cell-based; conditions: PANC-1, 24 h
[3] = system: PANC-1; experiment: Preferential cytotoxicity against human PANC-1 cells assessed as reduction in cell viability incubated for 24 hrs in nutrient-deprived medium by WST-8 assay; type: functional
[4] = target: RAC-alpha serine/threonine-protein kinase (Homo sapiens) (UniProt P31749); experiment: Inhibition of Akt activation in human PANC-1 cells assessed as effect on mTOR level at 1.25 to 5 uM incubated for 6 hrs in nutrient-deprived medium by Western blot analysis; type: cell-based; conditions: dose 1.25-5 µM
[5] = system: PANC-1; experiment: Potency index, ratio of pipernonaline PC50 to test compound PC50 for Preferential cytotoxicity against human PANC-1 cells assessed as reduction in cell viability incubated for 24 hrs in nutrient-deprived medium by WST-8 assay; type: functional
[6] = target: RAC-alpha serine/threonine-protein kinase (Homo sapiens) (UniProt P31749); experiment: Inhibition of Akt activation in human PANC-1 cells assessed as effect on Atg3 level at 1.25 to 5 uM incubated for 6 hrs in nutrient-deprived medium by Western blot analysis; type: cell-based; conditions: dose 1.25-5 µM
[7] = target: RAC-alpha serine/threonine-protein kinase (Homo sapiens) (UniProt P31749); experiment: Inhibition of Akt activation in human PANC-1 cells assessed as effect on total Akt level at 1.25 to 5 uM incubated for 6 hrs in nutrient-deprived medium by Western blot analysis; type: cell-based; conditions: dose 1.25-5 µM
[8] = target: RAC-alpha serine/threonine-protein kinase (Homo sapiens) (UniProt P31749); experiment: Inhibition of Akt activation in human PANC-1 cells assessed as upregulation of LC3-II level at 1.25 to 5 uM incubated for 6 hrs in nutrient-deprived medium by Western blot analysis; type: cell-based; conditions: dose 1.25-5 µM
[9] = target: RAC-alpha serine/threonine-protein kinase (Homo sapiens) (UniProt P31749); experiment: Inhibition of Akt activation in human PANC-1 cells assessed as effect on Atg7 level at 1.25 to 5 uM incubated for 6 hrs in nutrient-deprived medium by Western blot analysis; type: cell-based; conditions: dose 1.25-5 µM
[10] = target: RAC-alpha serine/threonine-protein kinase (Homo sapiens) (UniProt P31749); experiment: Inhibition of Akt activation in human PANC-1 cells assessed as decrease in Akt phosphorylation at 5 uM incubated for 6 hrs in nutrient-deprived medium by Western blot analysis; type: cell-based
[11] = system: PANC-1; experiment: Inhibition of cell migration in human PANC-1 cells assessed as reduction in cell migration at 20 uM measured at 18 hrs in nutrient-rich Dulbecco's modified Eagle's medium by quantitative real-time cell migration assay relative to control; type: functional
[12] = system: PANC-1; experiment: Inhibition of cell migration in human PANC-1 cells assessed as reduction in migration velocity at 20 uM measured every 15 min for 24 hrs in nutrient-rich Dulbecco's modified Eagle's medium by quantitative real-time cell migration assay; type: functional
[13] = system: PANC-1; experiment: Inhibition of cell migration in human PANC-1 cells assessed as reduction in cell migration at 20 uM measured at 12 hrs in nutrient-rich Dulbecco's modified Eagle's medium by quantitative real-time cell migration assay relative to control; type: functional

Chain of RAC-alpha serine/threonine-protein kinase (Homo sapiens) (P31749 whole entry): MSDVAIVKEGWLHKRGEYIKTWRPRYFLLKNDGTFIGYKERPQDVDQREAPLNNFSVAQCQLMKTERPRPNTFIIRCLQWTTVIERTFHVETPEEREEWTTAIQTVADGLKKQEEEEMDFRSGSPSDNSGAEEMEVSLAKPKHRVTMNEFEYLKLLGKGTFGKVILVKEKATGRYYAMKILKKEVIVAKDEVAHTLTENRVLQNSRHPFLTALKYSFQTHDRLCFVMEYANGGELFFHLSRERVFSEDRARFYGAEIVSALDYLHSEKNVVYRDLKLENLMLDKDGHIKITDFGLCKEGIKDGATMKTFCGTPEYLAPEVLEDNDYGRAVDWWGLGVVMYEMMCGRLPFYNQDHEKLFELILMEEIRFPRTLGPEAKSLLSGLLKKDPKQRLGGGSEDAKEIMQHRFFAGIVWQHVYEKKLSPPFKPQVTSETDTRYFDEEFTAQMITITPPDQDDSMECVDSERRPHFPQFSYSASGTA

SMILES	selectivity ratio [1]	IC50 [2] [µM]	PC50 [3] [µM]	further results
O=C(/C=C/CCCC/C=C/c1ccc2c(c1)OCO2)N1CCCCC1 [PIPERNONALINE]	7.6	54.9	7.2	
N#Cc1ccc(CCCCCCCCC(=O)N2CCCCC2)cc1	> 25	> 100	4	
O=C(CCCCCC/C=C/c1ccccc1)N1CCCCC1	7.4	> 100	9.6	
O=C(CCCCCCCCc1ccccc1Cl)N1CCCCC1	> 27.8	> 100	3.6	
O=C(CCCCCCCc1ccccc1)N1CCCCC1	> 14.5	> 100	6.9	
O=C(CCCCCCCCCCc1ccccc1)N1CCCCC1	> 15.2	> 100	6.6	
O=C(/C=C\CCCCCCc1ccccc1)N1CCCCC1	> 43.5	> 100	2.3	
O=C(CCCCCCCCCc1ccccc1)N1CCCCC1	> 15.4	> 100	6.5	
O=C(/C=C/CCCCCCc1ccccc1)N1CCCCC1	> 58.8	> 100	1.7	
O=C(/C=C/CCCCC#Cc1ccccc1)N1CCCCC1	> 45.5	> 100	2.2	
COc1ccc(CCCCCCCCC(=O)N2CCCCC2)cc1	23.5	89.3	3.8	
O=C(CCCCCCCCc1ccc(F)cc1)N1CCCCC1	28.5	99.8	3.5	
O=C(CCCCCCCCc1ccc2ccccc2c1)N1CCCCC1	14.5	87	6	
Nc1ccn([C@@H]2O[C@H](CO)[C@@H](O)C2(F)F)c(=O)n1 [GEMCITABINE]		> 100	>100	
O=C(CCCOCCCCc1ccccc1)N1CCCCC1	> 3.8	> 100	26.6	
O=C(/C=C/CCCCCCc1ccccc1)N1CCCCCC1	> 32.3	> 100	3.1	
O=C(CCCCCCCCc1cccc(F)c1)N1CCCCC1	> 15.2	> 100	6.6	

SMILES	selectivity ratio [1]	IC50 [2] [µM]	PC50 [3] [µM]	further results
O=C(CCCCCCCCc1ccccc1F)N1CCCCC1	21.5	98.9	4.6	
O=C(/C=C/CCCCCCc1ccccc1)N[C@H]1CC[C@H](O)CC1	> 1.9	> 100	52.1	
Cc1ccc(CCCCCCCCC(=O)N2CCCCC2)cc1	> 24.4	> 100	4.1	
O=C(CCCCCCc1ccccc1)N1CCCCC1	> 14.1	> 100	7.1	
O=C(CCCCCCCCC1CCCCC1)N1CCCCC1	> 8.3	> 100	12	
O=C(CCCCCCCCc1ccc(C(F)(F)F)cc1)N1CCCCC1	16.9	54	3.2	
O=C(CCCCCCCCc1ccccc1)N1CCCCC1	> 90.9	> 100	1.08	inhibition [4]: inactive; Ratio [5]: 7; inhibition [6]: inactive; inhibition [7]: inactive; inhibition [8]: Active; inhibition [9]: inactive; inhibition [10]: Active; inhibition at 20 µM [11]: 78%; Activity [12]: 10.6 um2/s; inhibition at 20 µM [13]: 50%
O=C(/C=C/CCCCCCc1ccccc1)N1CCOCC1	> 8	> 100	12.5	
O=C(/C=C/CCCCCCc1ccccc1)Nc1ccccc1	> 11.4	> 100	8.8	
O=C(/C=C/CCCCCCc1ccccc1)N1CCCC1	> 24.4	> 100	4.1	
S=C(CCCCCCCCc1ccccc1)N1CCCCC1	> 45.5	> 100	2.2	
O=C(CCCCCCCCc1ccc(O)cc1)N1CCCCC1	> 12.8	> 100	7.8	
O=C(CCCCCCCCc1ccc(Cl)cc1)N1CCCCC1	19.8	65.5	3.3	
O=C(/C=C/CCCCCCc1ccccc1)NCc1ccccc1	> 16.4	> 100	6.1	
O=C(CCCCCCCCc1cccc(Cl)c1)N1CCCCC1	> 23.3	> 100	4.3	
O=C(/C=C/CCCCCCc1ccccc1)N1CCC(O)CC1	> 10.6	> 100	9.4	
